Assay results reported in the supplement of paper PMC10290057.
Counter-ions that a name gives are not always drawn.

These molecules were tested on HCT116 (assay: efficacy (fitted maximal change in viability relative to DMSO control); higher = less cytotoxic (negative = loss of viability)). Conditions: 48 h.
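Further: Luminescence-based viability readout, five doses per compound, normalized against on-plate DMSO and empty-well controls, followed by dose-response curve fitting for every drug.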

SMILES | efficacy [%]
CC(C)(Sc1ccc(CCN(CCCCC2CCCCC2)C(=O)NC2CCCCC2)cc1)C(=O)O [GW-7647] | -45.1
O=C(O)CCc1ccc(NCc2cccc(Oc3ccccc3)c2)cc1 [GW-9508] | -8.05
CCOC(=O)c1ccc(OC(=O)CCCCCNC(=N)N)cc1 [Gabexate mesilate] | 7.86
Cc1cccc(-c2nn3c(c2-c2ccnc4ccc(C(N)=O)cc24)CCC3)n1 [Galunisertib] | 12.5
N\C1=N\C2=C(N=C[N]2COC(CO)CO)C(=O)N1 [Ganciclovir] | -18.1
COc1cc2ncnc(Nc3ccc(F)c(Cl)c3)c2cc1OCCCN1CCOCC1 [Gefitinib] | -15.4
COC1=C2C[C@H](C)C[C@H](OC)[C@H](O)[C@@H](C)/C=C(/C)[C@H](OC(N)=O)[C@@H](OC)/C=C\C=C(\C)C(=O)NC(=CC1=O)C2=O [Geldanamycin] | -57.3
Cc1ccc(C)c(OCCCC(C)(C)C(=O)O)c1 [Gemfibrozil] | -13.1
OC1=CC=C(C=C1)\C2=C\OC3=C(C(=CC(=C3)O)O)C2=O [Genistein] | -33.2
CC[C@]12CC[C@H]3[C@@H](CCC/4=C/C(=O)CC[C@H]34)[C@@H]1\C=C/[C@@]2(O)C#C [Gestodene] | -21.8
O=c1cc(O)c(Cl)c[nH]1 [Gimeracil] | -6.4
C[C@@H]1C(=O)OC2[C@H](O)[C@]34[C@H]5C[C@@H](C(C)(C)C)[C@]36[C@@H](OC(=O)[C@@H]6O)O[C@@]4(C(=O)O5)[C@]21O (stereo partly drawn) [Ginkgolide B] | -9.74
CN1CC[C@@H](NC(=O)Nc2ccc(C#N)cc2)C[C@@H]1c1nc2ccccc2[nH]1 [Glasdegib] | -8.71
CCC1=C(C)CN(C(=O)NCCc2ccc(S(=O)(=O)NC(=O)N[C@H]3CC[C@H](C)CC3)cc2)C1=O [Glimepiride] | -14.8
CN1[C@@H]2CCC[C@H]1CC(NC(=O)c1nn(C)c3ccccc13)C2 (stereo partly drawn) [Granisetron (AB-1001)] | -17.2
C=CC(=O)Nc1cc(N2CCN(CC)CC2)ccc1Nc1cc(N(C)C(=O)Nc2c(Cl)c(OC)cc(OC)c2Cl)ncn1 [H3B-6527] | -19.6
CCOC(=O)C(C#N)C\1C2=CC(=CC=C2O\C(=C1C(=O)OCC)N)Br (stereo not drawn) [HA-14-1] | -8.15
Oc1cc2c(cc1O)C1c3ccc(O)c(O)c3OCC1(O)C2 (stereo not drawn) [Hematoxylin] | -9.9
CCC(c1ccc(O)cc1)C(CC)c1ccc(O)cc1 (stereo not drawn) [Hexestrol] | -61.8
CNc1nc(Nc2ccc(C(=O)N3CCOCC3)cc2OC)ncc1Cl [Hg-10-102-01] | -12.2
N[S+](=O)([O-])c1cc2c(cc1Cl)NCN[S+]2(=O)[O-] [Hydrochlorothiazide] | 7.16
C[C@]\12CCC(=O)\C=C1CC[C@H]3[C@@H]4CC[C@](O)(C(=O)CO)[C@@]4(C)C[C@H](O)[C@H]23 [Hydrocortisone] | -23
C/C1=C2/[N]3[Co+]456([OH])<-[N]7=C1[C@@H](CCC(N)=O)C(C)(C)/C7=C/C1=[N]->4C(=C(/C)C4=[N]->5[C@@](C)([C@H]3[C@H](CC(N)=O)[C@@]2(C)CCC(=O)NC[C@@H](C)OP(=O)([O-])O[C@H]2[C@@H](O)[C@@H](n3c[n]->6c5cc(C)c(C)cc53)O[C@@H]2CO)[C@@](C)(CC(N)=O)[C@@H]4CCC(N)=O)/[C@@](C)(CC(N)=O)[C@@H]1CCC(N)=O [Hydroxocobalamin] | -39.6
CC(C)(O)C(=O)Nc1ccc([N+](=O)[O-])c(C(F)(F)F)c1 [Hydroxyflutamide] | -27.7
C[C@H](CCC(=O)O)[C@H]1CCC2C3C[C@H](O)[C@@H]4C[C@H](O)CC[C@]4(C)C3CC[C@@]21C (stereo partly drawn) [Hyodeoxycholic acid] | 5.2

SMILES | efficacy [%]
CCN(c1ccccc1)c1cc(NC)[n+](C)c(C)n1 [ICI-D7288] | -13
CC(C(C)N1CC(=O)NC(=O)C1)N1CC(=O)NC(=O)C1 (stereo not drawn) [ICRF-193] | -32.2
COc1ccc(-n2c(C)c([N+](=O)[O-])c3ccc(O)cc32)cc1 [ID-8] | -14.4
O=C(O)CCCCCC(=O)NN=C1CCCC1 [IDE-2] | -8.18
CCCCc1ccc(N[S+](=O)([O-])c2ccc(C)c(C(=O)N3CCN(c4cccc(C)c4C)CC3)c2)cc1 [IDH-001] | -48.4
Cc1ccccc1C(C(=O)NC1CCCCC1)N(C(=O)CNc1ccc(C#N)cc1)c1cccc(F)c1 (stereo not drawn) [IDH-C227] | -56.1
COc1cc2ncn(-c3cc(OCc4ccccc4[S+](C)(=O)[O-])c(C#N)s3)c2cc1OC [IKK-3 Inhibitor IX] | -13.8
OC(=O)CNC(=O)\C1=C(/O)C2=CC=CC=C2N(CC3=CC=CC=C3)C1=O [IOX2] | 9.68
O=C(O)c1ccc(O)c2ncccc12 [IOX-1] | -36.7
Oc1ccc2ccccc2c1SSc1c(O)ccc2ccccc12 [IPA-3] | -115
Cc1cc(/C=c2/sc3nc4ccccc4n3c2=O)c(C)n1-c1ccccc1 [ITX3] | -19.9
CC1=CC=C2N=C(NC(=O)CS\C3=N\C4=C(\SCC4)C(=O)N3C5=CC=CC=C5)SC2=C1 [IWP-2] | -12.9
O=C1CC[C@H](N2Cc3c(OCc4ccc(CN5CCOCC5)cc4)cccc3C2=O)C(=O)N1 [Iberdomide] | -18.8
CC(C)(N)C(=O)N[C@H](COCc1ccccc1)C(=O)N1CCC2(CC1)CN([S+](C)(=O)[O-])c1ccccc12 [Ibutamoren mesilate] | -50.7
CCCCCCCN(CC)CCCC(O)c1ccc(N[S+](C)(=O)[O-])cc1 (stereo not drawn) [Ibutilide fumarate] | -59.1
COC1=CC=C(C=C1)C/2=C(OC3O[C@@H](C)[C@H](O)[C@@H](O)[C@H]3O)/C(=O)C4=C(O2)C(=C(OC5O[C@H](CO)[C@@H](O)[C@H](O)[C@H]5O)C=C4O)CC=C(C)C (stereo partly drawn) [Icariin] | -27.5
COC1=CC=C(C=C1)/C2=C(O)/C(=O)C3=C(O)C=C(O)C(=C3O2)CC=C(C)C [Icaritin] | -16.5
C#Cc1cccc(Nc2ncnc3cc4c(cc23)OCCOCCOCCO4)c1 [Icotinib hydrochloride] | -36
CC[C@H](NC1=C2N=C[NH]C2=NC=N1)C/3=N/C4=C(C(=CC=C4)F)C(=O)N3C5=CC=CC=C5 [Idelalisib] | -25.3
C[S+]([O-])(=O)NC1=CC2=C(C=C1OC3=CC=CC=C3)C(=O)\C(=C/O2)NC=O [Iguratimod] | -14.8
CNC(=O)[C@H](Cc1c[nH]c2ccccc12)NC(=O)[C@@H](CC(=O)NO)CC(C)C [Ilomastat (GM6001, Galardin)] | -7.39
C[C@@H]\1/N=C(/N)NC(=N1)\N(C)C [Imeglimin] | -5.96
CC(C)Cn1cnc2c(N)nc3ccccc3c21 [Imiquimod] | -14.9
CC1Cc2ccccc2N1NC(=O)c1ccc(Cl)c([S+](N)(=O)[O-])c1 (stereo not drawn) [Indapamide] | -9.36
O=C1Nc2ccccc2/C1=C1\Nc2ccccc2C1=O [Indirubin] | -9.8

SMILES | efficacy [%]
Cn1cc(C[C@@H](N)C(=O)O)c2ccccc21 [Indoximod] | -9.77
C/C=C(/C)C(=O)O[C@H]1C(C)=CC23C(=O)C(C=C(CO)[C@@H](O)[C@]12O)[C@H]1[C@@H](C[C@H]3C)C1(C)C (stereo partly drawn) [Ingenol mebutate] | -63.6
NC(=O)c1ccc(I)c([N+](=O)[O-])c1 [Iniparib] | -14.6
CC(C)Oc1ccc2c(=O)c(-c3ccccc3)coc2c1 [Ipriflavone] | -27.7
Cc1csc(NC(=O)c2sc3nc4c(c(C(F)(F)F)c3c2N)CCC4)n1 [Irestatin 9389] | -42
N[S+]([O-])(=O)OC1=CC=C2\C3=C(CCCCC3)/C(=O)OC2=C1 [Irosustat (STX-64)] | -30.6
CN[C@@H]1[C@@H](O)[C@@H](O[C@@H]2[C@@H](O)[C@H](O[C@H]3O[C@H](CN)[C@@H](O)[C@H](O)[C@H]3O)[C@@H](N)C[C@H]2NC(=O)C(O)CN)OC[C@]1(C)O.O=S(=O)(O)O (stereo partly drawn) [Isepamicin sulfate] | -15.7
O=C(/C=C/c1ccc(O)cc1)c1ccc(O)cc1O [Isoliquiritigenin] | -62
CC(C)NCC(O)c1ccc(O)c(O)c1 (stereo not drawn) [Isoprenaline hydrochloride] | -16.7
CC1=C(/C=C/C(C)=C/C=C/C(C)=C\C(=O)O)C(C)(C)CCC1 [Isotretinoin] | -13.5
CCn1c(=O)c2c(nc(/C=C/c3ccc(OC)c(OC)c3)n2C)n(CC)c1=O [Istradefylline] | -9.26
N#CCC1(n2cc(-c3ncnc4[nH]ccc34)cn2)CN(C2CCN(C(=O)c3ccnc(C(F)(F)F)c3F)CC2)C1 [Itacitinib] | -26.4
CCC(C)N1\N=C/N(C1=O)C2=CC=C(C=C2)N3CCN(CC3)C4=CC=C(OC[C@H]5CO[C@@](C[N]6C=NC=N6)(O5)C7=CC=C(Cl)C=C7Cl)C=C4 (stereo partly drawn) [Itraconazole] | -32.6
COc1cc2c(cc1OC)CC(=O)N(CCCN(C)C[C@H]1Cc3cc(OC)c(OC)cc31)CC2 [Ivabradine hydrochloride] | -21.3
CC(=O)OCCN1C(=O)c2c(C)nc3ccc([S+](=O)([O-])N4CCOCC4)cc3c2C1=O [Ivachtin] | -16.7
N#Cc1ccnc(N2C(=O)CC[C@H]2C(=O)N(c2cncc(F)c2)[C@H](C(=O)NC2CC(F)(F)C2)c2ccccc2Cl)c1 [Ivosidenib] | -25.4
C=CC(=O)Nc1ccc(F)c(-c2ncnc3[nH]cc(C(=O)OCC)c23)c1 [JAK3i] | -66
CCOc1ccc(Nc2nc(-c3c(C)nc4ccccn34)cs2)cc1 [JK-184] | -56.2
COc1cc(SC)ccc1C(=O)N1CCC(Cc2ccccc2)CC1 [JX-401] | -43.4
O=C(Oc1ccc([N+](=O)[O-])cc1)N1CCC(C(O)(c2ccc3c(c2)OCO3)c2ccc3c(c2)OCO3)CC1 [JZL-184] | 9.17
O=C(Oc1ccc([N+](=O)[O-])cc1)N1CCN(Cc2cccc(Oc3ccccc3)c2)CC1 [JZL-195] | -38.1
CCOC(=O)c1ccnc(CNCC(=O)N(CC)CCN(C)C)c1 [KDM5-C70] | 11.1
NC(=O)c1cccc(-c2cccc(OC(=O)NC3CCCCC3)c2)c1 [KDS-4103] | -18
